# Assay results as given in patent publication US20240239779A1, “HERBICIDAL COMPOUNDS” (SYNGENTA CROP PROTECTION AG, priority 2021, published 2024).
# Key:
# Type in all cases: in vivo
# Details in all cases: 250 g/ha, evaluated after 13 days, 100=total damage to plant, 0=no damage to plant
# [1] = tested on: AMAPA; experiment: Pre-emergence biological efficacy
# Experimental: (§1) Seeds of weeds and/or crops were sown in standard soil in pots. After cultivation for one day under controlled conditions in a glasshouse (at 24/19° C., day/night; 16 hours light), the plants were sprayed with an aqueous spray solution derived from the formulation of the technical active ingredient in a small amount of acetone and a special solvent and emulsifier mixture referred to as IF50 (11.12% Emulsogen EL360 TM+44.44% N-methylpyrrolidone+44.44% Dowanol DPM glycol ether), to create a 50 g/l solution which was then diluted using 0.2% Genapol XO80 as diluent to give the desired final dose of test compound.
# (§2) The test plants were then grown under controlled conditions in the glasshouse (at 24/18° C., day/night; 15 hours light; 50% humidity) and watered twice daily. After 13 days the test was evaluated (100=total damage to plant; 0=no damage to plant).
# [2] = tested on: ECHCG; experiment: Pre-emergence biological efficacy
# Experimental: as §1, §2
# [3] = tested on: EPHHL; experiment: Pre-emergence biological efficacy
# Experimental: as §1, §2
# [4] = tested on: IPOHE; experiment: Pre-emergence biological efficacy
# Experimental: as §1, §2
# [5] = tested on: LOLPE; experiment: Pre-emergence biological efficacy
# Experimental: as §1, §2
# [6] = tested on: SETFA; experiment: Pre-emergence biological efficacy
# Experimental: as §1, §2
# [7] = tested on: AMAPA; experiment: Post-emergence biological efficacy
# Experimental: as §1, with “14 days” for “one day”
# (§3) The test plants were then grown under controlled conditions in the glasshouse (at 24/18° C., day/night; 15 hours light; 50% humidity)and watered twice daily. After 13 days the test was evaluated (100=total damage to plant; 0=no damage to plant).
# [8] = tested on: CHEAL; experiment: Post-emergence biological efficacy
# Experimental: as §1, with “14 days” for “one day”
# as §3
# [9] = tested on: DIGSA; experiment: Post-emergence biological efficacy
# Experimental: as §1, with “14 days” for “one day”
# as §3
# [10] = tested on: ECHCG; experiment: Post-emergence biological efficacy
# Experimental: as §1, with “14 days” for “one day”
# as §3
# [11] = tested on: ELEIN; experiment: Post-emergence biological efficacy
# Experimental: as §1, with “14 days” for “one day”
# as §3
# [12] = tested on: EPHHL; experiment: Post-emergence biological efficacy
# Experimental: as §1, with “14 days” for “one day”
# as §3
# [13] = tested on: IPOHE; experiment: Post-emergence biological efficacy
# Experimental: as §1, with “14 days” for “one day”
# as §3
# [14] = tested on: LOLPE; experiment: Post-emergence biological efficacy
# Experimental: as §1, with “14 days” for “one day”
# as §3
# [15] = tested on: SETFA; experiment: Post-emergence biological efficacy
# Experimental: as §1, with “14 days” for “one day”
# as §3
structure (smiles),measurement,setting,value
"CCOC(=O)C1(C)CC(c2nc(-n3c(=O)cc(C(F)(F)F)n(C)c3=O)c(F)cc2Cl)=NO1 (stereo not drawn) [Compound 14, ethyl 3-[3-chloro-5-fluoro-6-[3-methyl-2,6-dioxo-4-(trifluoromethyl)pyrimidin-1-yl]-2-pyridyl]-5-methyl-4H-isoxazole-5-carboxylate]","damage to plant, AMAPA",[1],100
same,"damage to plant, ECHCG",[2],100
same,"damage to plant, EPHHL",[3],100
same,"damage to plant, IPOHE",[4],100
same,"damage to plant, LOLPE",[5],90
same,"damage to plant, SETFA",[6],100
same,"damage to plant, AMAPA",[7],100
same,"damage to plant, CHEAL",[8],100
same,"damage to plant, DIGSA",[9],100
same,"damage to plant, ECHCG",[10],100
same,"damage to plant, ELEIN",[11],100
same,"damage to plant, EPHHL",[12],100
same,"damage to plant, IPOHE",[13],100
same,"damage to plant, LOLPE",[14],100
same,"damage to plant, SETFA",[15],100
